Test results: PMC8226862, “Design, Synthesis and Anticancer Activity of a New Series of N-aryl-N′-[4-(pyridin-2-ylmethoxy)benzyl]urea Derivatives” (Molecules, 2021)

Tests used:
[1] = system: A549 (non-small cell lung cancer cell line); test: MTT antiproliferative assay, A549; assay type: cell-based, human; settings: 96 h incubation
Method: (§1) The target compounds were evaluated for their antiproliferative activity against different human cancer cell lines, including A549 (non-small cell lung cancer cell line), MCF-7 (breast cancer cell line), HCT116 (colon cancer cell line), PC-3 (prostate cancer cell line) and HL7702 (human liver normal cell line) by using the MTT assay with sorafenib as the control drug.
(§2) The antiproliferative activities of target compounds were determined using a standard MTT assay. Exponentially growing cells A549 (1.5 × 10^3 cells/well), MCF-7 (2.2 × 10^3 cells/well), HCT-116 (800 cells/well), PC-3 (2.0 × 10^3 cells/well) and HL7702 (5.0 × 10^3 cells/well) were seeded into 96-well plates and incubated for 24 h to allow the cells to attach. Then, a fresh medium containing various concentrations of the candidate compounds was added to each well. The cells were then incubated for 96 h, thereafter MTT assays were performed, and cell viability was assessed at 570 nm by a microplate reader (ThermoFisher Scientific (Shanghai) Instrument Co., Ltd., Shanghai, China). The optical densities (OD) at 570 nm were measured, and the IC50 of the target compounds was calculated by using GraphPad Prism 5.0 software to perform nonlinear fitting with the cell survival rate under different concentrations of the compounds.

[2] = system: MCF-7 (breast cancer cell line); test: MTT antiproliferative assay, MCF7; assay type: cell-based, human; settings: 96 h incubation
Method: as §1, §2

[3] = system: HCT116 (colon cancer cell line); test: MTT antiproliferative assay, HCT116; assay type: cell-based, human; settings: 96 h incubation
Method: as §1, §2

[4] = system: PC-3 (prostate cancer cell line); test: MTT antiproliferative assay, PC3; assay type: cell-based, human; settings: 96 h incubation
Method: as §1, §2

[5] = system: HL7702 (human liver normal cell line); test: MTT cytotoxicity assay, HL7702; assay type: cell-based; settings: L02, HL7702 normal liver cells, 96 h incubation
Method: as §1, §2

Structure (SMILES)	IC50 ([1]; Homo sapiens, A549, 96 h) [µM]	IC50 ([2]; Homo sapiens, MCF7, 96 h) [µM]	IC50 ([3]; Homo sapiens, HCT-116, 96 h) [µM]	IC50 ([4]; Homo sapiens, 96 h) [µM]	IC50 [1] [µM]	melting point [°C]	IC50 [2] [µM]	IC50 [4] [µM]	IC50 [3] [µM]	IC50 [5] [µM]
COc1cc(CNC(=O)Nc2cccc(C(F)(F)F)c2)ccc1OCc1nccc(OCC(F)(F)F)c1C [8d, 1-(3-methoxy-4-((3-methyl-4-(2,2,2-trifluoroethoxy)pyridin-2-yl)methoxy)benzyl)-3-(3-(trifluoromethyl)phenyl)urea]	26.5 ± 5.66	> 50	9.44 ± 1.22	> 50	–	153.2 to 154.2	–	–	–	> 50
COc1ccc(NC(=O)NCc2ccc(OCc3nccc(OCC(F)(F)F)c3C)c(OC)c2)cc1 [8e, 1-(3-methoxy-4-((3-methyl-4-(2,2,2-trifluoroethoxy)pyridin-2-yl)methoxy)benzyl)-3-(4-methoxyphenyl)urea]	29.8 ± 5.09	> 50	28.8 ± 3.11	> 50	–	179.5 to 180.3	–	–	–	> 50
COc1cc(CNC(=O)Nc2cccc([N+](=O)[O-])c2)ccc1OCc1nccc(OCC(F)(F)F)c1C [8f, 1-(3-methoxy-4-((3-methyl-4-(2,2,2-trifluoroethoxy)pyridin-2-yl)methoxy)benzyl)-3-(3-nitrophenyl)urea]	12.4 ± 0.6	13.3 ± 2.27	13.3 ± 2.78	15.9 ± 0.73	–	168.9 to 170.5	–	–	–	> 50
COc1ccc(NC(=O)N(Cc2ccc(OCc3nccc(OCC(F)(F)F)c3C)c(OC)c2)C2CCN(C)CC2)cc1 [9c, 1-(3-methoxy-4-((3-methyl-4-(2,2,2-trifluoroethoxy)pyridin-2-yl)methoxy)benzyl)-3-(4-methoxyphenyl)-1-(1-methylpiperidin-4-yl)urea]	15.8 ± 1.51	4.65 ± 0.73	12.9 ± 1.59	12.3 ± 1.75	–	179.1 to 180.8	–	–	–	> 50
COc1ccc(CNC(=O)NCc2ccc(OCc3nccc(OCC(F)(F)F)c3C)c(OC)c2)cc1 [8g, 1-(3-methoxy-4-((3-methyl-4-(2,2,2-trifluoroethoxy)pyridin-2-yl)methoxy)benzyl)-3-(4-methoxybenzyl)urea]	> 50	> 50	7.84 ± 1.4	> 50	–	153 to 154.2	–	–	–	> 50
CCOc1ccc(CNC(=O)NCc2ccc(OCc3nccc(OCC(F)(F)F)c3C)c(OC)c2)cc1 [8h, 1-(4-ethoxybenzyl)-3-(3-methoxy-4-((3-methyl-4-(2,2,2-trifluoroethoxy)pyridin-2-yl)methoxy)benzyl)urea]	10.9 ± 2.02	> 50	23.3 ± 3.12	> 50	–	148.9 to 149.9	–	–	–	> 50
COc1cc(CN(C(=O)Nc2ccc(OC(F)(F)F)cc2)C2CCN(C)CC2)ccc1OCc1nccc(OCC(F)(F)F)c1C [9a, 1-(3-methoxy-4-((3-methyl-4-(2,2,2-trifluoroethoxy)pyridin-2-yl)methoxy)benzyl)-1-(1-methylpiperidin-4-yl)-3-(4-(trifluoromethoxy)phenyl)urea]	17.5 ± 2.95	< 3	4.41 ± 0.14	< 5	–	127.3 to 129.4	2.59 ± 0.29	4.1 ± 0.19	–	> 50
COc1cc(CNC(=O)Nc2ccc(F)c(Cl)c2)ccc1OCc1nccc(OCC(F)(F)F)c1C [8b, 1-(3-chloro-4-fluorophenyl)-3-(3-methoxy-4-((3-methyl-4-(2,2,2-trifluoroethoxy)pyridin-2-yl)methoxy)benzyl)urea]	17.7 ± 5.65	11 ± 1.68	9.33 ± 1.38	29.1 ± 5.81	–	167.8 to 169.1	–	–	–	> 50

Now those with a lower IC50 ([1]; Homo sapiens, A549, 96 h), led by results:

IC50 ([1]; Homo sapiens, A549, 96 h) [µM]	IC50 ([2]; Homo sapiens, MCF7, 96 h) [µM]	IC50 ([3]; Homo sapiens, HCT-116, 96 h) [µM]	IC50 ([4]; Homo sapiens, 96 h) [µM]	IC50 [1] [µM]	melting point [°C]	IC50 [2] [µM]	IC50 [4] [µM]	IC50 [3] [µM]	Structure (SMILES)	IC50 [5] [µM]
6.16 ± 0.46	3.54 ± 0.19	3.88 ± 0.36	5.26 ± 0.46	–	–	–	–	–	CNC(=O)c1cc(Oc2ccc(NC(=O)Nc3ccc(Cl)c(C(F)(F)F)c3)cc2)ccn1 [sorafenib, reference compound]	> 50
< 5	> 50	11.4 ± 3.28	> 50	4.88 ± 1.94	169.9 to 171	–	–	–	COc1cc(CNC(=O)Nc2ccc(C(F)(F)F)cc2)ccc1OCc1nccc(OCC(F)(F)F)c1C [8c, 1-(3-methoxy-4-((3-methyl-4-(2,2,2-trifluoroethoxy)pyridin-2-yl)methoxy)benzyl)-3-(4-(trifluoromethyl)phenyl)urea]	> 50
5.48 ± 4.36	< 3	5.82 ± 0.21	< 5	–	176.2 to 177.7	2.56 ± 0.16	4.53 ± 0.33	–	COc1cc(CN(C(=O)Nc2ccc(F)c(Cl)c2)C2CCN(C)CC2)ccc1OCc1nccc(OCC(F)(F)F)c1C [9e, 3-(3-chloro-4-fluorophenyl)-1-(3-methoxy-4-((3-methyl-4-(2,2,2-trifluoroethoxy)pyridin-2-yl)methoxy)benzyl)-1-(1-methylpiperidin-4-yl)urea]	> 50
< 5	< 3	< 3	< 5	3.17 ± 0.22	160.4 to 162.2	2.63 ± 0.08	3.62 ± 0.27	2.56 ± 0.26	COc1cc(CN(C(=O)Nc2cccc(C(F)(F)F)c2)C2CCN(C)CC2)ccc1OCc1nccc(OCC(F)(F)F)c1C [9d, 1-(3-methoxy-4-((3-methyl-4-(2,2,2-trifluoroethoxy)pyridin-2-yl)methoxy)benzyl)-1-(1-methylpiperidin-4-yl)-3-(3-(trifluoromethyl)phenyl)urea]	> 50
6.09 ± 0.29	3.18 ± 0.3	5.18 ± 0.33	7.39 ± 0.63	–	157.5 to 159.1	–	–	–	COc1cc(CN(C(=O)Nc2cccc([N+](=O)[O-])c2)C2CCN(C)CC2)ccc1OCc1nccc(OCC(F)(F)F)c1C [9f, 1-(3-methoxy-4-((3-methyl-4-(2,2,2-trifluoroethoxy)pyridin-2-yl)methoxy)benzyl)-1-(1-methylpiperidin-4-yl)-3-(3-nitrophenyl)urea]	> 50
6.04 ± 0.41	4.23 ± 0.47	< 3	6.25 ± 0.43	–	119 to 121.2	–	–	2.93 ± 0.26	CCOc1ccc(CNC(=O)N(Cc2ccc(OCc3nccc(OCC(F)(F)F)c3C)c(OC)c2)C2CCN(C)CC2)cc1 [9g, 3-(4-ethoxybenzyl)-1-(3-methoxy-4-((3-methyl-4-(2,2,2-trifluoroethoxy)pyridin-2-yl)methoxy)benzyl)-1-(1-methylpiperidin-4-yl)urea]	> 50
5.3 ± 1.45	> 50	7.25 ± 0.87	> 50	–	158.8 to 159.3	–	–	–	COc1cc(CNC(=O)Nc2ccc(OC(F)(F)F)cc2)ccc1OCc1nccc(OCC(F)(F)F)c1C [8a, 1-(3-methoxy-4-((3-methyl-4-(2,2,2-trifluoroethoxy)pyridin-2-yl)methoxy)benzyl)-3-(4-(trifluoromethoxy)phenyl)urea]	> 50
9.85 ± 4.4	> 50	10.9 ± 2.85	> 50	–	159.4 to 161.4	–	–	–	COc1cc(CNC(=O)NCc2ccc(N(C)C)cc2)ccc1OCc1nccc(OCC(F)(F)F)c1C [8i, 1-(4-(dimethylamino)benzyl)-3-(3-methoxy-4-((3-methyl-4-(2,2,2-trifluoroethoxy)pyridin-2-yl)methoxy)benzyl)urea]	> 50
